Several values for one entry are separate records, joined by “and”; a condition that tells them apart may be missing. Identical values can stand only once.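 Five compound concentrations were applied to cells in 96-well plates for 48 hours; endpoints were derived by simple linear interpolation of the resulting dose-response curve. The concentration for 50% growth inhibition is given as GI50. TGI marks complete inhibition of growth.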
Tests used:
Experiment in all cases: NCI tumour cell line growth inhibition, 48 h
SK-MEL-5 melanoma = test system: SK-MEL-5 melanoma
M19-MEL melanoma = test system: M19-MEL melanoma
HT29 colon = test system: HT29 colon
TK-10 renal = test system: TK-10 renal
NCI-H23 lung = test system: NCI-H23 lung
M14 melanoma = test system: M14 melanoma
SR leukemia = test system: SR leukemia
CAKI-1 renal = test system: CAKI-1 renal
KM20L2 colon = test system: KM20L2 colon
EKVX NSCLC = test system: EKVX NSCLC
MDA-MB-231 breast = test system: MDA-MB-231 breast

| Structure (SMILES) | TGI (SK-MEL-5 melanoma) [µM] | TGI (M19-MEL melanoma) [µM] | TGI (HT29 colon) | TGI (TK-10 renal) [µM] | TGI (NCI-H23 lung) [µM] | TGI (M14 melanoma) [µM] | TGI (SR leukemia) [µM] | TGI (CAKI-1 renal) | TGI (KM20L2 colon) [µM] | TGI (EKVX NSCLC) [µM] | TGI (MDA-MB-231 breast) [µM] | GI50 (HT29 colon) [µM] | GI50 (MDA-MB-231 breast) [µM] | GI50 (SR leukemia) [µM] | GI50 (CAKI-1 renal) [µM] |
| --- | --- | --- | --- | --- | --- | --- | --- | --- | --- | --- | --- | --- | --- | --- | --- |
| O=C(OCc1ccccc1C1CSCSC1)c1cc(C(=O)OCc2ccccc2C2CSCSC2)c(C(=O)OCc2ccccc2C2CSCSC2)cc1C(=O)OCc1ccccc1C1CSCSC1 | > 100 | > 100 | > 100 µM | > 100 | > 100 | > 100 | > 100 | > 100 µM | > 100 | – | – | – | – | – | – |
| C/C(=N\Nc1ccccc1)C(CN(C)C)C(c1ccccc1)c1c(O)c2ccccc2oc1=O (configuration not stated) | > 100 | > 100 | > 100 µM | > 100 | > 100 | > 100 | > 100 | > 100 µM | > 100 | > 100 | > 100 | – | – | – | – |
| Cc1cc2n([O-])cccc-2[n+](=O)c1 | > 100 | > 100 | > 100 µM | > 100 | > 100 | > 100 | > 100 | > 100 µM | > 100 | > 100 | – | – | – | – | – |
| O=S1(=O)CCN(c2ccccc2CC(c2c[nH]c3ccccc23)c2c[nH]c3ccccc23)CC1 | 19.8 | 23 | 23.3 µM | 19.8 | 22.6 | 20.5 | 20.1 | > 85.2 µM | 27.8 | 55.7 | 25.1 | – | – | – | – |
| CCN(CC)CCCCC1CCN(CC(=O)N2c3ccccc3NC(=O)CC2C)CC1 (configuration not stated) | > 100 | > 100 | > 100 µM | > 100 | > 100 | > 100 | > 100 | > 100 µM | > 100 | > 100 | – | – | – | – | – |
| Cc1cc([N+](=O)[O-])c(S(=O)(=O)c2ccccc2)c([N+](=O)[O-])c1 | 27.8 | 26.3 | 19.1 µM | 32.4 | 26.2 | 17.6 | > 100 | 10.3 µM | 37.3 | > 72.5 | – | – | – | – | – |
| CC1(C)COC(c2c(-c3ccccc3)noc2CS(=O)c2ccccc2)=N1 (configuration not stated) | > 100 | > 100 | > 100 µM | > 100 | > 100 | > 100 | > 100 | > 100 µM | > 100 | > 100 | – | – | – | – | – |
| OC12CCCCCC1(N1CCOCC1)c1ccccc12 (configuration not stated) | > 100 | > 100 | > 100 µM | > 100 | > 100 | > 100 | – | > 100 µM | > 100 | – | – | – | – | – | – |
| CC(C)(C)CC(C)(C)c1ccc(OCCOCC[N+](C)(C)Cc2ccccc2)cc1 | – | – | 2.49 µM and 3.3 µM | 17.3 | 6.01 | 6.11 | – | 38.2 µM and 30.8 µM | 18.8 | 16.9 | 2.82 | 1.14 | 1.34 | 1.75 | 15.1 |
| CCOC1=C2NC(Cc3ccc(F)cc3)=NC2C(=O)c2ccccc21 (configuration not stated) | – | 39.5 | 58.7 µM | > 100 | 53.4 | 73.4 | – | – | > 100 | 85.7 | – | – | – | – | – |
| COc1ccc(-c2c3ccccc3c(-c3ccc(OCCCCCBr)cc3)c3ccccc23)cc1 | – | > 100 | > 100 µM | > 100 | – | > 100 | > 100 | > 100 µM | > 100 | > 100 | – | – | – | – | – |
| Cc1cc2occ(-c3ccc(Cl)cc3)c2c(=O)o1 | > 100 | – | > 100 µM | > 100 | > 100 | > 100 | > 100 | > 100 µM | > 100 | > 100 | – | – | – | – | – |
| c1ccc(OCCSCCCCCCCCCCSCCOc2ccccc2)cc1 | > 100 | > 100 | – | > 100 | > 100 | > 100 | – | – | > 100 | > 100 | – | – | – | – | – |
